For the assay, the target named is Tyrosine-protein kinase Fyn (Homo sapiens, UniProt P06241). Nature of the assay: ADP-Glo Kinase Assay: The assay procedure determines the IC50 of each potential FYN kinase inhibitor by measuring the enzyme catalyzed ATP-dependent phosphorylation of the FYN substrate peptide. The ADP-Glo™ Kinase Assay is specifically designed to quantify kinase activity by measuring the ADP produced in the reaction The reaction buffer comprises 40 mM Tris.HCl (pH 7.5), 20 mM MgCl2, 0.1 mg/ml BSA and 5 microM DTT. Individual compounds within the chemical library were dissolved in DMSO at known concentrations. Briefly, 2.5 microliters of reaction buffer containing 3 picograms of FYN kinase and serial dilutions of each potential FYN kinase inhibitor (9 3-fold dilutions of a 10 micromolar top sample) are placed into each well of a 384 well microtiter plate and incubated at room temperature for 30 minutes. An additional 2.5 microliters of reaction buffer containing 100 picograms of the FYN substrate and 12.5 picomoles of ATP are then added to each well and the reaction carried out for 90 minutes at room temperature. A general note: ADP-Glo turns the ADP formed in a reaction into a luminescent signal.

In general, IC50 refers to the concentration needed to halve the response being measured. Read a low IC50 as greater potency in that assay.

Tyrosine-protein kinase Fyn, sequence (P06241 whole entry): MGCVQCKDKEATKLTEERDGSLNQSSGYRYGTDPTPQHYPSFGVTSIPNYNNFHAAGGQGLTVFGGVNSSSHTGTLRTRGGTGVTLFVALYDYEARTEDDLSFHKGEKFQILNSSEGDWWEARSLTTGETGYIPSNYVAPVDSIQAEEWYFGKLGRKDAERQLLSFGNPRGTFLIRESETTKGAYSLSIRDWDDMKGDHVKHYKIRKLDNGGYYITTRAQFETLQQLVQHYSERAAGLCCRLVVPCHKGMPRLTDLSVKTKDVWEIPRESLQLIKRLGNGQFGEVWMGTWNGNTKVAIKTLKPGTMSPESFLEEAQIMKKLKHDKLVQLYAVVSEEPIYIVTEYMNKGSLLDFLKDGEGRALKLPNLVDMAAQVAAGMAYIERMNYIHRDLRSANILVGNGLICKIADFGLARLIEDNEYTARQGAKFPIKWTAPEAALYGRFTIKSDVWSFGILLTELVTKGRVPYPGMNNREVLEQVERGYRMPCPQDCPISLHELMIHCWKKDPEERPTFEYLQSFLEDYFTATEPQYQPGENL

Consider `COc1cc(-c2nn([C@H]3CC[C@H](N4CCN(C)CC4)CC3)c3ncnc(N)c23)ccc1NC(=O)c1cc2ccccc2n1C`, for which half-maximal inhibition (IC50) required 330 nM.
Take `COc1ccc2c(c1)-c1nc(Nc3cc(C)c(OCCN(C)C)c(C)c3)ncc1CC2`: 8 nM corresponded to half-maximal inhibition (IC50).
On to `COc1cc2ncnc3c2cc1OCCCCCN(C(=O)OCc1ccccc1)Cc1ccc2c(c1N3)OCO2`, for which the IC50 stood at 6.69 nM.
The figure for `COc1ccc2c(c1)-c1nc(Nc3ccc(CCCN4CCCC4)c(OC)c3)ncc1CC2(C)C` is 8 nM.

These data come from ChEMBL document CHEMBL5727757, “Methods, compositions, and uses of novel Fyn kinase inhibitors” (2020).
